How the values were obtained:
[1] = “free chlorine” (Hach Method 8021) and “total chlorine” (Hach Method 8167) in dosed simulated cooling water, Example 1; type: physicochemical; conditions: for Free Cl2 / Total Cl2 / % hydrolysis to Free Cl2: simulated cooling water pH 9.1, 38° C.
Text: The standard tests for determination of “free chlorine” and “total chlorine” are based on classical test procedures devised by Palin in 1974. See A. T. Palin, “Analytical Control of Water Disinfection With Special Reference to Differential DPD Methods For Chlorine, Chlorine Dioxide, Bromine, Iodine and Ozone”, J. Inst. Water Eng., 1974, 28, 139. While there are various modernized versions of the Palin procedures, the version of the tests for “free chlorine” and “total chlorine” used and to be used as the standard in connection with this invention, are fully described in Hach Water Analysis Handbook, 3rd edition, copyright 1997. The procedure for “free chlorine” is identified in that publication as Method 8021 appearing on page 335, whereas the procedure for “total chlorine” is Method 8167 appearing at page 379. Briefly, the “free chlorine” test involves introducing to the halogenated water a powder comprising DPD indicator powder and a buffer. “Free chlorine” present in the water reacts with the DPD indicator to produce a red to pink coloration. The intensity of the coloration depends upon the concentration of “free chlorine” species present in the sample. This intensity is measured by a calorimeter calibrated to transform the intensity reading into a “free chlorine” value in terms of mg/L Cl2. Similarly, the “total chlorine” test also involves use of DPD indicator and buffer. In this case, KI is present with the DPD and buffer whereby the halogen species present, including nitrogen-combined halogen, reacts with KI to yield iodine species which turn the DPD indicator to red/pink. The intensity of this coloration depends upon the sum of the “free chlorine” species and all other halogen species present in the sample. Consequently, this coloration is transformed by the colorimeter into a “total chlorine” value expressed as mg/L Cl2.
DBDAH and BCDMH Test Procedure • 1. To determine the amount of species present in the water which respond to the “free chlorine” and “total chlorine” tests, the water sample should be analyzed within a few minutes of being taken, and preferably immediately upon being taken. • 2. Hach Method 8021 for testing the amount of species present in the water sample which respond to the “free chlorine” test involves use of the Hach Model DR 2010 calorimeter. The stored program number for chlorine determinations is recalled by keying in “80” on the keyboard, followed by setting the absorbance wavelength to 530 nm by rotating the dial on the side of the instrument. Two identical sample cells are filled to the 10 mL mark with the water under investigation. One of the cells is arbitrarily chosen to be the blank. Using the 10 mL cell riser, this is admitted to the sample compartment of the Hach Model DR 2010, and the shield is closed to prevent stray light effects. Then the ZERO key is depressed. After a few seconds, the display registers 0.00 mg/L Cl2. To second cell, the contents of a DPD Free Chlorine Powder Pillow are added. This is shaken for 10-20 seconds to mix, as the development of a pink-red color indicates the presence of species in the water which respond positively to the DPD test reagent. Within one minute of adding the DPD “free chlorine” reagent to the 10 mL of water in the sample cell, the blank cell used to zero the instrument is removed from the cell compartment of the Hach Model DR 2010 and replaced with the test sample to which the DPD “free chlorine” test reagent was added. The light shield is then closed as was done for the blank, and the READ key is depressed. The result, in mg/L Cl2 is shown on the display within a few seconds. This is the “free chlorine” level of the water sample under investigation. • 3. Hach Method 8167 for testing the amount of species present in the water sample which respond to the “total chlorine” test involves use of the Hach Model DR 2010 calorimeter. […]

[2] = tested on: planktonic bacteria; experiment: Cooling tower field test with floater dispenser, Example 5: planktonic plate counts; conditions: substantially continuous dosing from floater, 0.15 to 0.2 ppm of free halogen as Br2
Description: Another field test was carried out in the cooling tower described in Example 2 above. In this field test the cooling tower water was substantially continuously dosed with DBDMH using a Rainbow Lifeguard swimming pool floater having a capacity of about 3 lbs of granules, with the slots in the wide open position. This floater, charged with DBDMH granules, was placed and secured in the tower basin, a very convenient location for addition of the biocide when needed. The floater delivered a dose of “free halogen” to maintain a dosage level in the range of 0.15 to 0.2 ppm of free halogen as Br2.
The granules of DBDMH used in Examples 2-5 have an average size in the range of about 40 U.S. standard mesh size to about ⅜-inch, and an average crush strength of at least 15 pounds per inch of thickness. The combination of the low water solubility of DBDMH coupled with its use in granular form provided a slow but continuous or substantially continuous automatic dosing of the cooling tower water so that a biocidally effective level of free bromine was maintained in the water during the entire test, with relatively infrequent refilling of the dispenser being required.

[3] = dosed to 1 mg/L as total chlorine, Time 0 hr
[4] = Time 0.5 hr, percentage of Time 0 value
[5] = Time 1 hr, percentage of Time 0 value
[6] = Time 1.5 hr, percentage of Time 0 value
[7] = Time 2 hr, percentage of Time 0 value
[8] = Time 3 hr, percentage of Time 0 value
[9] = Time 4 hr, percentage of Time 0 value
[10] = Time 5 hr, percentage of Time 0 value
[11] = Time 6 hr, percentage of Time 0 value

## CC1(C)C(=O)N(Br)C(=O)N1Br [DBDMH, 1,3-dibromo-5,5-dimethylhydantoin]
[1]; [3]
  Free Cl2: 98.8
  Total Cl2: 100
[1]; Time 0 hr
  % hydrolysis to Free Cl2: 98.8%
[1]; Time 0.5 hr
  % hydrolysis to Free Cl2: 95.6%
[1]; [4]
  Free Cl2: 100%
  Total Cl2: 104%
[1]; Time 1 hr
  % hydrolysis to Free Cl2: 97.3%
[1]; [5]
  Free Cl2: 85.1%
  Total Cl2: 87.3%
[1]; Time 1.5 hr
  % hydrolysis to Free Cl2: 100%
[1]; [6]
  Free Cl2: 87.3%
  Total Cl2: 87.3%
[1]; Time 2 hr
  % hydrolysis to Free Cl2: 97.2%
[1]; [7]
  Free Cl2: 81.6%
  Total Cl2: 83.9%
[1]; Time 3 hr
  % hydrolysis to Free Cl2: 93.8%
[1]; [8]
  Free Cl2: 70.1%
  Total Cl2: 74.7%
[1]; Time 4 hr
  % hydrolysis to Free Cl2: 93.8%
[1]; [9]
  Free Cl2: 65.5%
  Total Cl2: 66.6%
[1]; Time 5 hr
  % hydrolysis to Free Cl2: 96.4%
[1]; [10]
  Free Cl2: 60.1%
  Total Cl2: 63.2%
[1]; Time 6 hr
  % hydrolysis to Free Cl2: 96.3%
[1]; [11]
  Free Cl2: 59.8%
  Total Cl2: 62%
[1]; water of pH of at least 8 freshly treated
  “total chlorine” level higher than the “free chlorine level” of the water: no more than 10%
[2]
  planktonic plate counts: less than 10^4 CFU/mL
